# Test results published in patent US20030096022A1, “Compositions and methods for the treatment and prevention of cardiovascular diseases and disorders, and for identifying agents therapeutic therefor” (Medlyte, Inc., priority 2000, published 2003).
# Key:
# Adult rat cardiomyocytes = experiment: Hypoxia-induced sphingosine (SPH) production/release in cultured adult cardiomyocytes, HPLC of extracted sphingolipids; type: cell-based; details: cells pretreated 30 min with TNFRII:Fc 0.5 ng/mL or L-carnitine 20 ng/mL prior to 5 h hypoxia, FIG. 4
# Protocol: Adult rat cardiomyocytes were subjected to hypoxic conditions as described above and assayed for their ability to produce sphingolipid bases involved in the sphingomyelin signal transduction cascade.
# Cardiomyocytes were cultured on plastic dishes that were placed in a humidified modular incubator chamber (ICN Biomedicals, Aurora, Ohio) pressurized to 0.04-0.05 psi by the particular gas mixture used in the treatment. Warm (37° C.) Tyrode's solution containing 0.2 mM BSA, ampicillin ([…]), kanamycin (100 mg/mL) and fungizone (20 μg/mL) was gassed in a 50 mL sterile conical for 15 minutes with 95%N2/5% CO2 prior to adding the solution to the cultured cells. The pO2 was monitored by a Micro pO2 System oxygen electrode (Lasar Research Labs, Los Angeles, Calif.) and found to be 4.0 PPM for the duration of the hypoxia condition. […] The pH of control and experimental cell cultures was monitored with a micro pH electrode (Beetrode pH Electrodes, Sarasota, Fla.) and remained constant at pH=7.26+/−0.02 for normoxic cells and 7.15+/−0.03 for hypoxic cells throughout the experiment. […]
# The HPLC analysis was performed using a Beckman (Fullerton, Calif.) System Gold 118 Solvent Module and 507e Autosampler. A Jasco (Easton, Md.) FP-920 Intelligent Fluorescence Detector was used with an excitation wavelength of 330 nm and emission wavelength of 455 nm. […]
# [1] = molecular target: tumor necrosis factor alpha (TNFα) released by hypoxic rat cardiomyocytes (rat) (UniProt P16599); experiment: cell-based or functional assay
# [2] = tested on: Langendorff rat heart model of ischemia; experiment: Global ischemia and reperfusion in isolated Langendorff-perfused rat heart (left ventricular pressure); details: 0.1 mM gentamicin recirculated 30 min, 40 min global ischemia, 45 min reperfusion; FIG. 5
# From the text: The protocol used was essentially that described by Sakai et al. (A device for recording left ventricular contraction and electrocardiogram in nonworking isolated perfused rat heart, Jpn J Pharmacol 28:223-9, 1978), and Zelinski et al., (Phosphatidylcholine biosynthesis in isolated hamster heart, J Biol Chem. 255:11423-8, 1980) with the exception, in the latter instance, that rat studies were used in the experiments described herein instead of hamster hearts.
# In brief, rats were anesthetized and their hearts were excised. The isolated hearts were cannulated and attached to Langendorff perfusion apparatus, and perfused with KH buffer. The hearts were allowed to stabilize for 5-10 min. After stabilization, the hearts should be paceable and drip rate should be between 5 and 10 mls per minute.
# A small hole was cut in the left atrium of each animal to expose the mitral valve. A deflated transducer balloon was introduced into the left ventricle through the hole in left atrium. The transducer tube was taped and adjusted so that there was no pressure on the heart. Left ventricular pressure was measured and recorded using the MacLab program. […]
# After about 45 min., the perfusate was turned off and the ventricular pressure was no longer recorded. […]
# tumor necrosis factor alpha (TNFα) released by hypoxic rat cardiomyocytes (rat), sequence (P16599 80-235 limits assumed): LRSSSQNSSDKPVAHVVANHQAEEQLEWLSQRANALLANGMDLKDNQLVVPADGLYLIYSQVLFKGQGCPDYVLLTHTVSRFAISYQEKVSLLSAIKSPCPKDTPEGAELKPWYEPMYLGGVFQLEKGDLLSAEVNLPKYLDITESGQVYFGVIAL
molecule,measurement,setting,value
C[N+](C)(C)C[C@H](O)CC(=O)[O-] [L-carnitine],reducing the amount of total SPH (hypoxia-induced production of sphingosine),Adult rat cardiomyocytes,significantly (p<0.01) reducing
same,reducing the amount of total SPH (hypoxia-induced production of sphingosine),Adult rat cardiomyocytes; listed as L-camitine,blocks
TNFRII:Fc receptor fragment (from UniProt P20333 23-257) (Fc fusion),SPH release from hypoxic adult rat cardiomyocytes (HPLC),[1],3 fold
Gentamicin Sulfate,ischemia and reperfusion injury,[2],mitigated
